This is an account of results in patent publication US10221167B2, “Hydroxyalkylamine- and hydroxycycloalkylamine-substituted diamine-arylsulfonamide compounds with selective activity in voltage-gated sodium channels” (Merck Sharp & Dohme Corp., priority 2015, dated 2019).

T2 sequence (Q15858 whole entry): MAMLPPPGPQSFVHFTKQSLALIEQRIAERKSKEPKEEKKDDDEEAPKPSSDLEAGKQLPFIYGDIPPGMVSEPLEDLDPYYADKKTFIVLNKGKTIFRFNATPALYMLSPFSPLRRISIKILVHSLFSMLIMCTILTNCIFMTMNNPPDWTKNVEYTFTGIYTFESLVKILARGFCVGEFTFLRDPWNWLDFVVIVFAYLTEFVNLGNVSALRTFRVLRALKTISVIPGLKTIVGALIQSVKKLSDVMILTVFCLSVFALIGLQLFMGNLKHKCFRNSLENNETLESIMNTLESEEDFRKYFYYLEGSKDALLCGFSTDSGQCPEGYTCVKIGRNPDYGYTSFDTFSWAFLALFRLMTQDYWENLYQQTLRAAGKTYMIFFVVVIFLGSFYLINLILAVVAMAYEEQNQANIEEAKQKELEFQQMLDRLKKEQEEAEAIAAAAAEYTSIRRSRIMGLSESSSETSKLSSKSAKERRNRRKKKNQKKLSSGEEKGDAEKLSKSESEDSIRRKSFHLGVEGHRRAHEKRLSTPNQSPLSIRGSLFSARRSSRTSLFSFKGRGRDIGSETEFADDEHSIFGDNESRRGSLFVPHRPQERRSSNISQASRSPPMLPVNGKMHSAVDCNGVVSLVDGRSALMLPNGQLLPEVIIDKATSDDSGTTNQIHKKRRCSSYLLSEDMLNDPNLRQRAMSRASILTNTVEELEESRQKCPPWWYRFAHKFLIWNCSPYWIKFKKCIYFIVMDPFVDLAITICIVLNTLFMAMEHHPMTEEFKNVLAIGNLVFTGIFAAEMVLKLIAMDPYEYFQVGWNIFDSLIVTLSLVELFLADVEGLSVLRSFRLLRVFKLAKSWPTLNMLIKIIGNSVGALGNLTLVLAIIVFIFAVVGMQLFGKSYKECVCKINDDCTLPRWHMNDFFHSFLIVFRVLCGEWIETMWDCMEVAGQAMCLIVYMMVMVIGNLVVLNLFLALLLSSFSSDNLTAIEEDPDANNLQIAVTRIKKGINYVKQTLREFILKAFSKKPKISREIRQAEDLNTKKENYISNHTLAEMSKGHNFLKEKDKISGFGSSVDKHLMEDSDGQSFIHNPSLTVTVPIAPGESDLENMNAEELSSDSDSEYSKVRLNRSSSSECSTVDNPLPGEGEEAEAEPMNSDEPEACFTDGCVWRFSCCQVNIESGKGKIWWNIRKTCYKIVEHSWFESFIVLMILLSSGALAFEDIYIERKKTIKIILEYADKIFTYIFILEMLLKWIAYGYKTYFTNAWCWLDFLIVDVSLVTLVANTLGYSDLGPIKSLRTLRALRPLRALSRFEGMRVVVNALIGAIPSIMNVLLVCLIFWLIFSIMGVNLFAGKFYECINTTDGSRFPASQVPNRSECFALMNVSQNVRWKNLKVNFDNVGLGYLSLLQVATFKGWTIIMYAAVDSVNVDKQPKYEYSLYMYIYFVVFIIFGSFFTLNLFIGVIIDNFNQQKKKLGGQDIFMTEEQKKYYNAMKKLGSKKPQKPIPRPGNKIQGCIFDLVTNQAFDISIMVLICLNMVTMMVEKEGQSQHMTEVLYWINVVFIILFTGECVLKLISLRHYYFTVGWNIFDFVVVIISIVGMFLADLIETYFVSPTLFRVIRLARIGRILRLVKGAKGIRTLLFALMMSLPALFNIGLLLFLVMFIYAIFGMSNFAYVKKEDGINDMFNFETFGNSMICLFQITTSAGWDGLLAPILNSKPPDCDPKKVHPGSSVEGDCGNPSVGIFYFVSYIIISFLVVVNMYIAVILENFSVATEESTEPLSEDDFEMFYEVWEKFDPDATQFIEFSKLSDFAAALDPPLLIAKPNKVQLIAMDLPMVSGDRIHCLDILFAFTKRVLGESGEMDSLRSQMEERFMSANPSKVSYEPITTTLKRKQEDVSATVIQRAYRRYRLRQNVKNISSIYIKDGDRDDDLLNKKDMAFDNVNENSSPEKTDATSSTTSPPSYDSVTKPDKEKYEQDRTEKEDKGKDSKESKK
T1 sequence (Q14524 whole entry): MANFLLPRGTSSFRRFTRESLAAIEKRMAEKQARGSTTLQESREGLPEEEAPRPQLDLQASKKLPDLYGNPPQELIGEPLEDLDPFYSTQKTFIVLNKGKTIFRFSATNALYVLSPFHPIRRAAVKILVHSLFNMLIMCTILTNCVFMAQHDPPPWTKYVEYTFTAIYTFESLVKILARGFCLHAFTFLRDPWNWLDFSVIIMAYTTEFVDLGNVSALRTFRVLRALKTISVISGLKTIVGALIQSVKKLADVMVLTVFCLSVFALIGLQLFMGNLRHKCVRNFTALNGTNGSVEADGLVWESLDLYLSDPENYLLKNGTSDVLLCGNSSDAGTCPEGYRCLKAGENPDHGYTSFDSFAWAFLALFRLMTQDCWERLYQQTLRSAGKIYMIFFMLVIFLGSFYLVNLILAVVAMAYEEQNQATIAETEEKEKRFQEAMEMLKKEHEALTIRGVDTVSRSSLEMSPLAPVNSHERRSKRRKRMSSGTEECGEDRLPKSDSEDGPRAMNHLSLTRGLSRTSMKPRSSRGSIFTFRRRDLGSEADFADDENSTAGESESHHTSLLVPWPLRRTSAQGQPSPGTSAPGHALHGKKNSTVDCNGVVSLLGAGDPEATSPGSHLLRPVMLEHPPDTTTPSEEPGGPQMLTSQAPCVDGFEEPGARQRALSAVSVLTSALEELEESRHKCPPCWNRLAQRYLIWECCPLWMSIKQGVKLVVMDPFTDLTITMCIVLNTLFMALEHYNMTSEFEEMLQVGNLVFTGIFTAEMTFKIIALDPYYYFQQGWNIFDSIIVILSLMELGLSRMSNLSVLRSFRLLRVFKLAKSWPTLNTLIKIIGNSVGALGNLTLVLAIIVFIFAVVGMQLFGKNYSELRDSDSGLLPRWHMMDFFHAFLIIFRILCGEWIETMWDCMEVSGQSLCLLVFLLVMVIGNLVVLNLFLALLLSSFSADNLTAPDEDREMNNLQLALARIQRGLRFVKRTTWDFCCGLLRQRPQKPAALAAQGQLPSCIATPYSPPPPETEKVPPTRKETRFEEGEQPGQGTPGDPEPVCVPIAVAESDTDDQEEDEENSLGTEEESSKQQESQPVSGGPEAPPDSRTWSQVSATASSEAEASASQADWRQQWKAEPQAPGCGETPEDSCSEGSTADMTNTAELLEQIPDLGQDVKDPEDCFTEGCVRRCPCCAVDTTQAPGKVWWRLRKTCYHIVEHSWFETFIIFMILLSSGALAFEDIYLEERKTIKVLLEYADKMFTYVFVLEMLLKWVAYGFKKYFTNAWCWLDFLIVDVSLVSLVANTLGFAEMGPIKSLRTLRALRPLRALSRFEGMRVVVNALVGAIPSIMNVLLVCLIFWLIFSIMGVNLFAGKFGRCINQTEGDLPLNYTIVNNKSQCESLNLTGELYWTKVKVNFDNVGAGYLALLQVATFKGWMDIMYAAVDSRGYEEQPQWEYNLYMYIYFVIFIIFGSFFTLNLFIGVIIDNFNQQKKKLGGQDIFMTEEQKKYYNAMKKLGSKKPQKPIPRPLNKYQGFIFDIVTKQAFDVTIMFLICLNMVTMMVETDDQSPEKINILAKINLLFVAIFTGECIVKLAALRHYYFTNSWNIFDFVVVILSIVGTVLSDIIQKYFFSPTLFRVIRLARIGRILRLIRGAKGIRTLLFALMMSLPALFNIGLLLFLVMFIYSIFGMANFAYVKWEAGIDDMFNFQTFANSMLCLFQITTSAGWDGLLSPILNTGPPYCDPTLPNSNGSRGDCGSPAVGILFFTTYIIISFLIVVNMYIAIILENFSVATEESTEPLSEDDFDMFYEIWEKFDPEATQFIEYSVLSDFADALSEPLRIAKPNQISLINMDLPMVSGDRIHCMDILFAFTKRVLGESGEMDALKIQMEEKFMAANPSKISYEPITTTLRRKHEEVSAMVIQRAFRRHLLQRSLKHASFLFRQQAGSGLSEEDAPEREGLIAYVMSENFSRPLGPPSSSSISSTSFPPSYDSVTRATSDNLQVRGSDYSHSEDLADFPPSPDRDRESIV

The first assay concerns the target T1, human Nav1.5 channels stably expressed in HEK 293 cells (Homo sapiens, UniProt Q14524).
T1 construct: expressed in transfected cells
Kind of assay: IonWorks Quattro automated patch-clamp, Nav1.5 (selectivity ratio versus Nav1.7). In kind it is cell-based. The following applies: selectivity for Nav1.7 over Nav1.5, inactivated state block. Here is the method:
(§1) Compounds were tested on human Nav1.7 and Nav1.5 channels stably expressed in HEK 293 cells. […] Cells were sealed on a planar substrate using the Population Patch Plate (PPC) technology. Electrical access was obtained using both nystatin and amphotericin. A double-pulse protocol was used for the determination of IC50 values for inactivated state block. Nav1.7 and Nav1.5 expressing cells were voltage clamped at −100 mV and −110 mV, respectively. A depolarizing prepulse to −10 mV (Nav1.7) or −30 mV (Nav1.5) for 1000 ms followed by a 10 ms repolarization to −100 mV (Nav1.7) or −110 mV (Nav1.5) was given to generate fractional channel inactivation of ˜50%, followed by a 10 ms test pulse to −10 mV (Nav1.7) or −30 mV (Nav1.5) to measure peak current in control conditions and after compound addition. The following recording solutions were used (mM). External: 150 NaCl, 2 CaCl2, 5 KCl, 1 Mg Cl2, 10 HEPES, 12 Dextrose; internal: 120 CsF, 30 CsCl, 10 EGTA, 5 HEPES, 5 NaF, 2 MgCl2.
(§2) For all electrophysiology experiments, offline analysis was used to determine percent inhibition as a function of drug concentration. IC50 values were determined by fitting to the Hill equation.
(§3) The various compounds in Examples 1 through 4 and Tables 1 through 3 exemplified above were assayed for activity and selectivity using the foregoing IonWorks® technique. The results are reported in the following paragraph in a format expressing the identification of the compound with reference Example and compound (e.g. Ex 1-1 is Example 1, compound 1) followed by the observed potency in nM and the ratio of Nav1.7 potency:Nav 1.5 potency as described here. […]
A general note: In patch-clamp work, channel activity is measured electrically.
On to `NC[C@H](CO)NCCCCNc1cc(F)c(S(=O)(=O)Nc2ncns2)cc1Cl` [EX 2-41], for which the “ratio of Nav1.7 potency:Nav 1.5 potency” value is not below 655.

Regarding `O=S(=O)(Nc1ncc(F)s1)c1cc(Cl)c(NCCCCNC[C@@H]2C[C@@H](O)CN2)cc1F` [EX 2-22, 5-chloro-2-fluoro-N-(5-fluoro-1,3-thiazol-2-yl)-4-{[4-({[(2S,4R)-4-hydroxypyrrolidin-2-yl]methyl}amino)butyl]amino} benzenesulfonamide], the “ratio of Nav1.7 potency:Nav 1.5 potency” value is not below 942.

The next assay has as its target T2, human Nav1.7 channels stably expressed in HEK 293 cells (Homo sapiens, UniProt Q15858).
T2 construct: expressed in transfected cells
Kind of assay: IonWorks Quattro automated patch-clamp, state-dependent inhibition of Nav1.7. In kind it is cell-based. The following applies: inactivated state block, double-pulse protocol, holding -100 mV, read-out: potency for the Nav 1.7 sodium ion channel (as measured by IonWorks). Here is the method:
as §1, §2, §3
For the compound `NC[C@@H](O)CNCCCCNc1cc(F)c(S(=O)(=O)Nc2ncns2)cc1Cl` [EX 1-6, 4-[(4-{[(2R)-3-amino-2-hydroxypropyl]-amino}butyl)amino]-5-chloro-2-fluoro-N-1,2,4-thiadiazol-5-yl-benzenesulfonamide], the IC50 was found to be 15 nM.

With `NC[C@H](CO)NCCCCNc1cc(F)c(S(=O)(=O)Nc2ncns2)cc1Cl` [EX 2-41], the IC50 was 29 nM.

In the case of `O=S(=O)(Nc1ncc(F)s1)c1cc(Cl)c(NCCCCNC[C@@H]2C[C@@H](O)CN2)cc1F` [EX 2-22, 5-chloro-2-fluoro-N-(5-fluoro-1,3-thiazol-2-yl)-4-{[4-({[(2S,4R)-4-hydroxypyrrolidin-2-yl]methyl}amino)butyl]amino} benzenesulfonamide], the IC50 came out at 35 nM.

For `O=S(=O)(Nc1ncc(F)s1)c1cc(Cl)c(NCCCCNC[C@H]2C[C@H](O)CN2)cc1F` [EX 2-24, 5-chloro-2-fluoro-N-(5-fluoro-1,3-thiazol-2-yl)-4-{[4-({[(2R,4S)-4-hydroxypyrrolidin-2-yl]methyl}amino)butyl]amino} benzenesulfonamide], the IC50 came to 30 nM.

For the compound `O=S(=O)(Nc1nccs1)c1cc(Cl)c(NCCCCN[C@H]2CNC[C@@H]2O)cc1F` [EX 2-38], the IC50 was determined as 40 nM.

As to `O=S(=O)(Nc1ncc(F)s1)c1cc(Cl)c(NCCCCNC[C@H]2C[C@@H](O)CN2)cc1F` [EX 2-23, 5-chloro-2-fluoro-N-(5-fluoro-1,3-thiazol-2-yl)-4-{[4-({[(2R,4R)-4-hydroxypyrrolidin-2-yl]methyl}amino)butyl]amino} benzenesulfonamide], the IC50 stood at 23 nM.

With `NCC[C@@H](CO)NCCCCNc1cc(F)c(S(=O)(=O)Nc2ncc(F)s2)cc1Cl` [EX 2-33, 4-[(4-{[(1S)-3-amino-1-(hydroxymethyl)propyl]amino}butyl)amino]-5-chloro-2-fluoro-N-(5-fluoro-1,3-thiazol-2-yl)benzenesulfonamide], the IC50 was found to be 20 nM.

As for `O=S(=O)(Nc1ncns1)c1cc(Br)c(NCCCCN[C@H]2CNC[C@@H]2O)cc1F` [EX 2-43, 5-bromo-2-fluoro-4-((4-(((3S,4S)-4-hydroxypyrrolidin-3-yl)amino)butyl)amino)-N-(1,2,4-thiadiazol-5-yl)benzenesulfonamide], the IC50 worked out at 15 nM.

With `NC[C@@H](O)CNCCCCNc1cc(F)c(S(=O)(=O)Nc2ncns2)cc1Br` [EX 1-8, 4-[(4-{[(2R)-3-amino-2-hydroxypropyl]-amino}-butyl)amino]-5-bromo-2-fluoro-N-1,2,4-thiadiazol-5-yl-benzenesulfonamide], the IC50 is 17 nM.

On to `NCC(O)CNCCCCNc1cc(F)c(S(=O)(=O)Nc2nccs2)cc1Cl` (single isomer, unassigned) [EX 2-29, 4-[(4-{[(2R or 2S)-3-amino-2-hydroxypropyl]amino}butyl)amino]-5-chloro-2-fluoro-N-1,3-thiazol-2-ylbenzenesulfonamide], for which the IC50 was found to be 18 nM.

As to `O=S(=O)(Nc1ncns1)c1cc(Br)c(NCCCCNCC2(O)CNC2)cc1F` [EX 1-5, 5-bromo-2-fluoro-4-[(4-{[(3-hydroxyazetidin-3-yl)methyl]amino}butyl)amino]-N-1,2,4-thiadiazol-5-ylbenzenesulfonamide], the IC50 was 19 nM.

As to `NC[C@@H](CO)NCCCCNc1cc(F)c(S(=O)(=O)Nc2nccs2)cc1Cl` [EX 2-35, 4-[(4-{[(1S)-2-amino-1-(hydroxymethyl)ethyl]amino}butyl)amino]-5-chloro-2-fluoro-N-1,3-thiazol-2-ylbenzenesulfonamide], the IC50 amounted to 15 nM.

Take `NCC(O)CNCCCCNc1cc(F)c(S(=O)(=O)Nc2ncc(F)s2)cc1Cl` (single isomer, unassigned) [EX 2-17, 4-[(4-{[(2R or 2S)-3-amino-2-hydroxypropyl]amino}butyl)amino]-5-chloro-2-fluoro-N-(5-fluoro-1,3-thiazol-2-yl)benzenesulfonamide]: the IC50 was 15 nM.

Turning to `NCC[C@@H](CO)NCCCCNc1cc(F)c(S(=O)(=O)Nc2nccs2)cc1Cl` [EX 2-32, 4-[(4-{[(1S)-3-amino-1-(hydroxymethyl)propyl]amino}butyl)amino]-5-chloro-2-fluoro-N-1,3-thiazol-2-ylbenzenesulfonamide], the IC50 is 19 nM.

Turning to `NCC1(O)CN(CCCCNc2cc(F)c(S(=O)(=O)Nc3ncc(F)s3)cc2Cl)C1` [EX 1-2, 4-({4-[3-(aminomethyl)-3-hydroxyazetidin-1-yl]butyl}amino)-5-chloro-2-fluoro-N-(5-fluoro-1,3-thiazol-2-yl)benzenesulfonamide], the IC50 turned out to be 20 nM.

Take `O=S(=O)(Nc1nccs1)c1cc(Cl)c(NCCCCNCC2(O)CNC2)cc1F` [EX 2-28, 5-chloro-2-fluoro-4-[(4-{[(3-hydroxyazetidin-3-yl)methyl]amino}butyl)amino]-N-1,3-thiazol-2-ylbenzenesulfonamide]: the IC50 is 18 nM.

Take `NCC(O)CNCCCCNc1cc(F)c(S(=O)(=O)Nc2nccs2)cc1Cl` (single isomer, unassigned) [EX 2-30, 4-[(4-{[(2S or 2R)-3-amino-2-hydroxypropyl]amino}butyl)amino]-5-chloro-2-fluoro-N-1,3-thiazol-2-ylbenzenesulfonamide]: the IC50 was 17 nM.

For `O=S(=O)(Nc1nccs1)c1cc(Cl)c(NCCCCN[C@@H]2CNC[C@H]2O)cc1F` [EX 2-31, 5-chloro-2-fluoro-4-[(4-{[(3R,4R)-4-hydroxypyrrolidin-3-yl]amino}butyl)amino]-N-1,3-thiazol-2-ylbenzenesulfonamide], the IC50 amounted to 30 nM.

In the case of `NCC[C@@H](CO)NCCCCNc1cc(F)c(S(=O)(=O)Nc2ncns2)cc1Cl` [EX 2-34, 4-[(4-{[(1S)-3-amino-1-(hydroxymethyl)propyl]amino}butyl)amino]-5-chloro-2-fluoro-N-1,2,4-thiadiazol-5-ylbenzenesulfonamide], the IC50 amounted to 18 nM.

Consider `O=S(=O)(Nc1ncc(F)s1)c1cc(Cl)c(NCCCCN[C@@H]2CNC[C@H]2O)cc1F` [EX 2-20, 5-chloro-2-fluoro-N-(5-fluoro-1,3-thiazol-2-yl)-4-[(4-{[(3R,4R)-4-hydroxypyrrolidin-3-yl]amino}butyl)amino] benzenesulfonamide], for which the IC50 is 40 nM.

Take `NC[C@H](CO)NCCCCNc1cc(F)c(S(=O)(=O)Nc2ncc(F)s2)cc1Cl` [EX 2-40, 4-[(4-{[(1R)-2-amino-1-(hydroxymethyl)ethyl]amino}butyl)amino]-5-chloro-2-fluoro-N-(5-fluoro-1,3-thiazol-2-yl)benzenesulfonamide]: the IC50 worked out at 50 nM.

Consider `O=S(=O)(Nc1ncc(F)s1)c1cc(Br)c(NCCCCNCC2(O)CNC2)cc1F` [EX 2-25, 5-bromo-2-fluoro-N-(5-fluoro-1,3-thiazol-2-yl)-4-[(4-{[(3-hydroxyazetidin-3-yl)methyl]amino}butyl)amino] benzenesulfonamide], for which the IC50 turned out to be 15 nM.

`O=S(=O)(Nc1ncns1)c1cc(Cl)c(NCCCCN[C@@H]2CNC[C@H]2O)cc1F` [EX 2-2, 5-chloro-2-fluoro-4-[(4-{[(3R,4R)-4-hydroxypyrrolidin-3-yl]amino}butyl)amino]-N-1,2,4-thiadiazol-5-ylbenzenesulfonamide]: the IC50 turned out to be 23 nM.
